From the supplement of paper PMC11208160 come the findings set out here.
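Further: IS621 recombinase and bridge RNA in Escherichia coli cells.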

A short description of the series: recombinant barcode read abundance after kanamycin selection (control-corrected) (log10(CPM+1)); higher = more efficient recombination; sequences stand for … in AGTGCAGAGAAAATCGGCCAGTTTTCTCTGCCTGCAGTCCGCATGCCGT…AGATTTATGCAGCGGACTGCCTTTCTCCCAAAGTGATAAACCGGACAGTATCATGGACCGGTTTTCCCGGTAATCCGTATTTGCAAGGTTGGTTTCACT; site = the 11-nt target. An outline of the steps: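 Targets were screened in pooled form in E. coli against IS621 bridge RNA target-binding loops. Recombination efficiency is based on barcode counts at recombinant junctions in counts per million, averaged and corrected for the control. Numbers are shown as log10(CPM+1), with duplicate plates on chloramphenicol/ampicillin LB agar (control) or chloramphenicol/ampicillin/kanamycin with 0.1 mM IPTG.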
“TACCGTCCTTGGGTTCTAACCTGTTGCGG (site GCGTCCTCTAA)”: the “recombinant barcode read abundance (log10)” value came to 0.312.
For “TACCGTCCTTGGGTTCTAACCTGTTGCGG (site TACCGTCCTCC)”, the “recombinant barcode read abundance (log10)” value was 1.8.
The value for “TACCTTACTTGGGTTCTAACCTGTTGCAG (site AGAAGATCTAG)” was 0.17; that for “TACCTTACTTGGGTTCTAACCTGTTGCAG (site TACCTTACTCT)” was 0.897.
The value for “TACGAATCTTGGGTTCTAACCTGTTGCCT (site TACGAATCTAG)” was 0.881; that for “TACGAATCTTGGGTTCTAACCTGTTGCCT (site TACGAATCTCG)” was 0.0232.
The value for “TACGACACTTGGGTTCTAACCTGTTGCCT (site TACGACACTAG)” was 1.9; that for “TACGACACTTGGGTTCTAACCTGTTGCCT (site TCCGACACTAG)” was 0.0501.
Turning to “TACGACTCTTGGGTTCTAACCTGTTGCTT (site TACGACTCTAA)”, the “recombinant barcode read abundance (log10)” value is 1.73.
As to “TACGACTCTTGGGTTCTAACCTGTTGCTT (site TTCGACTCTTA)”, the “recombinant barcode read abundance (log10)” value amounted to 0.0713.
Under “TACGCACCTTGGGTTCTAACCTGTTGCGA (site GTAATTACTAG)” stands 0.297; under “TACGCACCTTGGGTTCTAACCTGTTGCGA (site TACGCACCTTC)”, 1.03.
With “TACGCGGCTTGGGTTCTAACCTGTTGCCT (site TACGAGGCTAG)”, the “recombinant barcode read abundance (log10)” value is 0.0562.
The value for “TACGCGGCTTGGGTTCTAACCTGTTGCCT (site TACGCGGCTAG)” was 0.335; that for “TACGCGGCTTGGGTTCTAACCTGTTGCCT (site TACGGGGCTAG)” was 0.208.
Under “TACGCGGCTTGGGTTCTAACCTGTTGCCT (site TACGTGGCTAG)” stands 0.192.
The value for “TACGCTCCTTGGGTTCTAACCTGTTGCCT (site TACGCTCCTAA)” was 0.0709; that for “TACGCTCCTTGGGTTCTAACCTGTTGCCT (site TACGCTCCTAC)” was 0.
Turning to “TACGCTCCTTGGGTTCTAACCTGTTGCCT (site TACGCTCCTAG)”, the “recombinant barcode read abundance (log10)” value was 0.271.
In the case of “TACGCTCCTTGGGTTCTAACCTGTTGCCT (site TACGCTCCTAT)”, the “recombinant barcode read abundance (log10)” value turned out to be 0.452.
Under “TACGGCTCTTGGGTTCTAACCTGTTGCTT (site TACAGCTCTAA)” stands 0.297.
As for “TACGGCTCTTGGGTTCTAACCTGTTGCTT (site TACCGCTCTAA)”, the “recombinant barcode read abundance (log10)” value is 0.0429.
Under “TACGGCTCTTGGGTTCTAACCTGTTGCTT (site TACGGCTCTAA)” stands 1.51; under “TACGGCTCTTGGGTTCTAACCTGTTGCTT (site TACTGCTCTAA)”, 0.0509; under “TACTAAGCTTGGGTTCTAACCTGTTGCTT (site TACTAAGCTAA)”, 0.184.
Under “TACTAAGCTTGGGTTCTAACCTGTTGCTT (site TACTAAGCTAC)” stands 0.0381.
The value for “TACTAAGCTTGGGTTCTAACCTGTTGCTT (site TACTAAGCTAG)” was 0.0797.
In the case of “TACTAAGCTTGGGTTCTAACCTGTTGCTT (site TACTAAGCTAT)”, the “recombinant barcode read abundance (log10)” value amounted to 0.321.
The value for “TACTACCCTTGGGTTCTAACCTGTTGCGT (site TACTACCCTAC)” was 0.358; that for “TACTACCCTTGGGTTCTAACCTGTTGCGT (site TGCCACCCTAC)” was 1.28; that for “TACTCCTCTTGGGTTCTAACCTGTTGCGG (site CTAAAAGCTTG)” was 0.0539.
Under “TACTCCTCTTGGGTTCTAACCTGTTGCGG (site TACTCCTCTCC)” stands 0.155; under “TACTCTTCTTGGGTTCTAACCTGTTGCCT (site GGTCAACCTCC)”, 0.0368.
The value for “TACTCTTCTTGGGTTCTAACCTGTTGCCT (site TACTCTTCTAG)” was 0.279; that for “TACTGAACTTGGGTTCTAACCTGTTGCCT (site TACTAAACTAG)” was 0.0356; that for “TACTGAACTTGGGTTCTAACCTGTTGCCT (site TACTCAACTAG)” was 0.104.
As for “TACTGAACTTGGGTTCTAACCTGTTGCCT (site TACTGAACTAG)”, the “recombinant barcode read abundance (log10)” value is 0.159.
The value for “TACTGAACTTGGGTTCTAACCTGTTGCCT (site TACTTAACTAG)” was 0.305; that for “TACTGGGCTTGGGTTCTAACCTGTTGCTG (site TACTGGGCTCA)” was 0.684.
In the case of “TACTGGGCTTGGGTTCTAACCTGTTGCTG (site TACTGGGCTCC)”, the “recombinant barcode read abundance (log10)” value was determined as 0.0895.
Under “TAGAACACTTGGGTTCTAACCTGTTGCCT (site AAGAACACTAG)” stands 0.0955; under “TAGAACACTTGGGTTCTAACCTGTTGCCT (site CAGAACACTAG)”, 0.256; under “TAGAACACTTGGGTTCTAACCTGTTGCCT (site GAGAACACTAG)”, 0.108.
The value for “TAGAACACTTGGGTTCTAACCTGTTGCCT (site TAGAACACTAG)” was 0.992.
“TAGAACACTTGGGTTCTAACCTGTTGCTA (site TAGAACACTAA)”: the “recombinant barcode read abundance (log10)” value is 0.237.
The value for “TAGAACACTTGGGTTCTAACCTGTTGCTA (site TAGAACACTCA)” was 0.109; that for “TAGAACACTTGGGTTCTAACCTGTTGCTA (site TAGAACACTGA)” was 0.71; that for “TAGAACACTTGGGTTCTAACCTGTTGCTA (site TAGAACACTTA)” was 0.807.
The value for “TAGAACACTTGGGTTCTAACCTGTTGCTG (site TAGAACACTAA)” was 0.106; that for “TAGAACACTTGGGTTCTAACCTGTTGCTG (site TAGAACACTCA)” was 1.
As for “TAGAACACTTGGGTTCTAACCTGTTGCTG (site TAGAACACTGA)”, the “recombinant barcode read abundance (log10)” value amounted to 0.132.
Turning to “TAGAACACTTGGGTTCTAACCTGTTGCTG (site TAGAACACTTA)”, the “recombinant barcode read abundance (log10)” value is 0.0894.
Regarding “TAGAACTCTTGGGTTCTAACCTGTTGCCG (site TAGAACTCTAG)”, the “recombinant barcode read abundance (log10)” value was 0.242.
The value for “TAGAACTCTTGGGTTCTAACCTGTTGCCG (site TAGAACTCTCG)” was 0.591; that for “TAGAACTCTTGGGTTCTAACCTGTTGCCG (site TAGAACTCTGG)” was 0.0844.
As to “TAGAACTCTTGGGTTCTAACCTGTTGCCG (site TAGAACTCTTG)”, the “recombinant barcode read abundance (log10)” value amounted to 0.127.
Under “TAGAAGACTTGGGTTCTAACCTGTTGCTT (site TAGAAGACTAA)” stands 0.37; under “TAGAAGACTTGGGTTCTAACCTGTTGCTT (site TAGAAGACTCA)”, 0.282.
As for “TAGAAGACTTGGGTTCTAACCTGTTGCTT (site TAGAAGACTGA)”, the “recombinant barcode read abundance (log10)” value turned out to be 0.0968.
Take “TAGAAGACTTGGGTTCTAACCTGTTGCTT (site TAGAAGACTTA)”: the “recombinant barcode read abundance (log10)” value came to 0.399.
The value for “TAGAAGGCTTGGGTTCTAACCTGTTGCTA (site TAGAAGCCTTA)” was 0.0194.
The value for “TAGAAGGCTTGGGTTCTAACCTGTTGCTA (site TAGAAGGCTTA)” was 1.15; that for “TAGAAGTCTTGGGTTCTAACCTGTTGCTG (site AAGATGTCTCA)” was 0.122.
Under “TAGAAGTCTTGGGTTCTAACCTGTTGCTG (site TAGAAGTCTCA)” stands 1.46; under “TAGAATACTTGGGTTCTAACCTGTTGCGG (site TAGAATACTCC)”, 1.06; under “TAGAATACTTGGGTTCTAACCTGTTGCGG (site TATAATACTCC)”, 0.0627.
On to “TAGAATCCTTGGGTTCTAACCTGTTGCAC (site TAGAATCCTAT)”, for which the “recombinant barcode read abundance (log10)” value stood at 0.117.
For “TAGAATCCTTGGGTTCTAACCTGTTGCAC (site TAGAATCCTCT)”, the “recombinant barcode read abundance (log10)” value was determined as 0.152.
“TAGAATCCTTGGGTTCTAACCTGTTGCAC (site TAGAATCCTGT)”: the “recombinant barcode read abundance (log10)” value is 0.152.
As to “TAGAATCCTTGGGTTCTAACCTGTTGCAC (site TAGAATCCTTT)”, the “recombinant barcode read abundance (log10)” value was determined as 0.103.
The value for “TAGACAGCTTGGGTTCTAACCTGTTGCCT (site TAAACAGCTAG)” was 0.143; that for “TAGACAGCTTGGGTTCTAACCTGTTGCCT (site TACACAGCTAG)” was 0.122; that for “TAGACAGCTTGGGTTCTAACCTGTTGCCT (site TAGACAGCTAG)” was 0.416.
The value for “TAGACAGCTTGGGTTCTAACCTGTTGCCT (site TATACAGCTAG)” was 0.0229; that for “TAGACGACTTGGGTTCTAACCTGTTGCAC (site TAGACGACTGT)” was 1.57; that for “TAGACGACTTGGGTTCTAACCTGTTGCAC (site TAGCCGTCTGT)” was 0.173.
For “TAGACGACTTGGGTTCTAACCTGTTGCTT (site TAGACGACTAA)”, the “recombinant barcode read abundance (log10)” value worked out at 0.829.
